In patent publication US20210078972A1, “QUINOLINE OR QUINAZOLINE COMPOUND AND APPLICATION THEREOF” (HAIHE BIOPHARMA CO., LTD., priority 2018, published 2021):

Biological target: T1, AXL kinase (Homo sapiens, UniProt P30530)
T1 construct: purchased eurofins 14-500
T1 sequence (P30530 473-894 limits assumed): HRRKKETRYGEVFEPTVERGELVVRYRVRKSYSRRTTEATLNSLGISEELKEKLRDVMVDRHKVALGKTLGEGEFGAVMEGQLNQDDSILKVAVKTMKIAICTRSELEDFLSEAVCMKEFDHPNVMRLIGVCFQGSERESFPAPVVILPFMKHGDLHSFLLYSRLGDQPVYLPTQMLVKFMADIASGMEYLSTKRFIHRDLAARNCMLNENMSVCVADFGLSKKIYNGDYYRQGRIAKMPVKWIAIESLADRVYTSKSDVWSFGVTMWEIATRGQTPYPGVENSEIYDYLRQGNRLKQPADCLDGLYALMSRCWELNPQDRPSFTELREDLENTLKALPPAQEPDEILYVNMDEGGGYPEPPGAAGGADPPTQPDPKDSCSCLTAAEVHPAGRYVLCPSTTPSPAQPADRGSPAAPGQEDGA
Test: AXL kinase inhibition, Z'-LYTE FRET
Format: biochemical
Conditions: ATP 50 μM
Excerpt: Detection of the activity of kinase: the inhibitory activities of the compounds against AXL kinase (eurofins, 14-500) were detected through a second-order reaction by the Z′-LYTE™ technology (detected by fluorescence, enzyme-coupled form, based on the difference in a sensitivity of phosphorylated and non-phosphorylated polypeptides to proteolytic cleavage), based on the principle of fluorescence resonance energy transfer (FRET), using Z′-LYTE™ FRET peptide substrate (Z′-LYTE™ Tyrosine 6 Peptide Substrate, Invitrogen, PV4122).
Enzymatic reaction: To a 384-well plate was added 5 μL of enzyme-substrate system (50 mM HEPES, pH 6.5, 0.01% BRU-35, 10 mM MgC2, 1 mM EGTA, 0.02% NaNA), and 5 nL of a compound (concentration gradient) was transferred thereto using an echo520 ultramicro-liquid pipetting system. After the plate was shaken at room temperature for 10-20 min, 25 nL of ATP (a final concentration of 50 μM) was transferred thereto using the echo520 ultramicro-liquid pipetting system. After shaking and well mixing, the mixture was centrifuged and reacted at 30° C. in the dark for 1.5 h.
The data analysis method is as follows:
Phosphorylation ratio=1−{(emission ratio×F100%−C100%)/[C0%−C100%+emission ratio×(F100%−F0%)]}×100;
Inhibition rate=100×(1−compound phosphorylation ratio/negative control phosphorylation ratio).
The IC50 values were calculated by GraphPad Prism software.

In order of falling IC50:
1. COc1cc2c(Oc3ccc(NC(=O)c4c(C)n(C)c5ccc(OC(F)(F)F)cc5c4=O)cc3F)ncnc2cc1OCCC(C)C [TL-230, N-(3-fluoro-4-((7-(isopentyloxy)-6-methoxyquinazolin-4-yl)oxy)phenyl)-1,2-dimethyl-4-oxo-6-(trifluoromethoxy)-1,4-dihydroquinoline-3-carboxamide]  59.4 nM
2. COCCCOc1cc2ncnc(Oc3ccc(NC(=O)c4c(C)n(C)c5ccc(OC(F)(F)F)cc5c4=O)cc3F)c2cc1OC [TL-226, N-(3-fluoro-4-((6-methoxy-7-(3-methoxypropoxy)quinazolin-4-yl)oxy)phenyl)-1,2-dimethyl-4-oxo-6-(trifluoromethoxy)-1,4-dihydroquinoline-3-carboxamide]  4.7 nM
3. CCOc1cc2ncnc(Oc3ccc(NC(=O)c4c(C)n(C)c5ccc(OC(F)(F)F)cc5c4=O)cc3F)c2cc1OC [TL-241, N-(4-((7-ethoxy-6-methoxyquinazolin-4-yl)oxy)-3-fluorophenyl)-1,2-dimethyl-4-oxo-6-(trifluoromethoxy)-1,4-dihydroquinoline-3-carboxamide]  2.6 nM
4. COc1cc2ncnc(Oc3ccc(NC(=O)c4c(C)n(C)c5ccc(OC(F)(F)F)cc5c4=O)cc3F)c2cc1OCCCN1CCOCC1 [TL-236, N-(3-fluoro-4-((7-methoxy-6-(3-morpholinopropoxy)quinazolin-4-yl)oxy)phenyl)-1,2-dim ethyl-4-oxo-6-(trifluoromethoxy)-1,4-dihydroquinoline-3-carboxamide]  2.4 nM
5. COc1cc2c(Oc3ccc(NC(=O)c4c(C)n(C)c5ccc(OC(F)(F)F)cc5c4=O)cc3F)ncnc2cc1OCCN(C)C [TL-233, N-(4-((7-(2-(dimethylamino)ethoxy)-6-methoxyquinazolin-4-yl)oxy)-3-fluorophenyl)-1,2-dimethyl-4-oxo-6-(trifluoromethoxy)-1,4-dihydroquinoline-3-carboxamide]  1.9 nM
6. COc1cc2c(Oc3ccc(NC(=O)c4c(C)n(C)c5ccc(OC(F)(F)F)cc5c4=O)cc3F)ncnc2cc1OCCCN1CCCCC1 [TL-216, N-(3-fluoro-4-((6-methoxy-7-(3-(piperidin-1-yl)propoxy)quinazolin-4-yl)oxy)phenyl)-1,2-dimethyl-4-oxo-6-(trifluoromethoxy)-1,4-dihydroquinoline-3-carboxamide]  1.5 nM

Tested on: MV4-11 cells
Test: MV4-11 cell proliferation, CCK-8
Format: cell-based
Conditions: Homo sapiens, 72 h, read-out: IC50 of inhibition of proliferation of MV4-11 cells
Protocol: The inhibitory effects of the compounds on the proliferation of MV4-11 cells were detected by a CCK-8 cell counting kit (Dojindo). The specific steps are as follows: MV4-11 cells in the logarithmic phase were seeded into a 96-well culture plate at a suitable density for 90 μL per well. After overnight cultivation, the compounds at different concentrations were added to act for 72 hr, and a solvent control group was set (negative control). After 72 h of the compounds acting on the cells, the effects of the compounds on cell proliferation were detected using the CCK-8 cell counting kit (Dojindo). 10 μL of CCK-8 reagent was added to each well and the plate was placed in an incubator at 37° C. for 2-4 hours. After that, a full-wavelength microplate enzyme-labeling instrument SpectraMax 190 was used to read with a measurement wavelength of 450 nm.
The inhibition rate (%) of the compound on tumor cell growth was calculated by the following formula:
Inhibition rate (%)=(OD control well−OD administration well)/OD control well×100%
The IC50 values were obtained by regression with the four-parameter method using the software attached to the enzyme-labeling instrument.

With `CC(C)(C)c1cc(NC(=O)Nc2ccc(-c3cn4c(n3)sc3cc(OCCN5CCOCC5)ccc34)cc2)no1` [AC220, reference compound] the IC50 was < 4 nM.
